Reference: ChEMBL document CHEMBL1201862, “PubChem BioAssay data set” (2004)
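Interpolation was linear, between the two tested concentrations surrounding the appropriate level; five concentrations were tested over 48 hours in 96-well plates. GI50 is the concentration that inhibits growth by half.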 Activity calls are given as the source filed them. Rule as the data show it: active = GI50 up to about 1.1 µM and inactive = higher.

Legend:
Experiment in all cases: DTP human tumour cell line panel, 48 h
786-0 = tested on: 786-0
A549 = tested on: A549
ACHN = tested on: ACHN
BT-549 = tested on: BT-549
CAKI-1 = tested on: CAKI-1
CCRF-CEM = tested on: CCRF-CEM
COLO 205 = tested on: COLO 205
DU-145 = tested on: DU-145
EKVX = tested on: EKVX
HCC 2998 = tested on: HCC 2998
HCT-116 = tested on: HCT-116
HCT-15 = tested on: HCT-15
HL-60 = tested on: HL-60
HOP-62 = tested on: HOP-62
HT-29 = tested on: HT-29
Hs-578T = tested on: Hs-578T
IGROV-1 = tested on: IGROV-1
K562 = tested on: K562
KM12 = tested on: KM12
LOX IMVI = tested on: LOX IMVI
M14 = tested on: M14
MCF7 = tested on: MCF7
MDA-MB-231 = tested on: MDA-MB-231
MDA-MB-435 = tested on: MDA-MB-435
MDA-N = tested on: MDA-N
MOLT-4 = tested on: MOLT-4
Malme-3M = tested on: Malme-3M
NCI-H226 = tested on: NCI-H226
NCI-H23 = tested on: NCI-H23
NCI-H460 = tested on: NCI-H460
NCI-H522 = tested on: NCI-H522
NCI/ADR-RES = tested on: NCI/ADR-RES
OVCAR-3 = tested on: OVCAR-3
OVCAR-4 = tested on: OVCAR-4
OVCAR-5 = tested on: OVCAR-5
OVCAR-8 = tested on: OVCAR-8
PC-3 = tested on: PC-3
RPMI-8226 = tested on: RPMI-8226
RXF 393 = tested on: RXF 393
SF-268 = tested on: SF-268
SF-295 = tested on: SF-295
SK-MEL-28 = tested on: SK-MEL-28
SK-MEL-2 = tested on: SK-MEL-2
SK-MEL-5 = tested on: SK-MEL-5
SK-OV-3 = tested on: SK-OV-3
SN12C = tested on: SN12C
SNB-19 = tested on: SNB-19
SNB-75 = tested on: SNB-75
SR = tested on: SR
SW-620 = tested on: SW-620
T47D = tested on: T47D
TK-10 = tested on: TK-10
U-251 = tested on: U-251
UACC-257 = tested on: UACC-257
UACC-62 = tested on: UACC-62
UO-31 = tested on: UO-31
SF-539 = tested on: SF-539
HOP-92 = tested on: HOP-92

`CCCCCC(=O)n1[nH]c(=O)n(-c2ccc(OC)cc2)c1=O` was tested, and the GI50 (786-0) was > 100 µM (inactive), the GI50 (A549) was > 100 µM (inactive) and the GI50 (ACHN) was > 100 µM (inactive). For the same molecule, the GI50 (BT-549) was > 100 µM (inactive), the GI50 (CAKI-1) was > 100 µM (inactive) and the GI50 (CCRF-CEM) was > 100 µM (inactive). For the same molecule, the GI50 (COLO 205) was > 100 µM (inactive), the GI50 (DU-145) was > 100 µM (inactive) and the GI50 (EKVX) was > 100 µM (inactive). The GI50 (HCC 2998) was > 100 µM (inactive), the GI50 (HCT-116) was > 100 µM (inactive) and the GI50 (HCT-15) was > 100 µM. For the same molecule, the GI50 (HL-60) was > 100 µM (inactive), the GI50 (HOP-62) was > 100 µM (inactive) and the GI50 (HT-29) was > 100 µM (inactive). The GI50 (Hs-578T) was > 100 µM (inactive), the GI50 (IGROV-1) was > 100 µM (inactive) and the GI50 (K562) was > 100 µM (inactive). The GI50 (KM12) was > 100 µM (inactive), the GI50 (LOX IMVI) was > 100 µM (inactive) and the GI50 (M14) was > 100 µM (inactive). For the same molecule, the GI50 (MCF7) was > 100 µM (inactive), the GI50 (MDA-MB-231) was > 100 µM (inactive) and the GI50 (MDA-MB-435) was > 100 µM (inactive). The GI50 (MDA-N) was > 100 µM (inactive), the GI50 (MOLT-4) was > 100 µM (inactive) and the GI50 (Malme-3M) was 63.1 µM (inactive). For the same molecule, the GI50 (NCI-H226) was > 100 µM (inactive), the GI50 (NCI-H23) was > 100 µM (inactive) and the GI50 (NCI-H460) was > 100 µM (inactive). For the same molecule, the GI50 (NCI-H522) was 57.5 µM (inactive), the GI50 (NCI/ADR-RES) was > 100 µM (inactive) and the GI50 (OVCAR-3) was > 100 µM (inactive). The GI50 (OVCAR-4) was > 100 µM (inactive), the GI50 (OVCAR-5) was > 100 µM (inactive) and the GI50 (OVCAR-8) was > 100 µM (inactive). For the same molecule, the GI50 (PC-3) was > 100 µM (inactive), the GI50 (RPMI-8226) was > 100 µM (inactive) and the GI50 (RXF 393) was > 100 µM (inactive). The GI50 (SF-268) was > 100 µM (inactive), the GI50 (SF-295) was > 100 µM (inactive) and the GI50 (SK-MEL-28) was > 100 µM (inactive). For the same molecule, the GI50 (SK-MEL-2) was > 100 µM (inactive), the GI50 (SK-MEL-5) was > 100 µM (inactive) and the GI50 (SK-OV-3) was > 100 µM (inactive). For the same molecule, the GI50 (SN12C) was > 100 µM (inactive), the GI50 (SNB-19) was > 100 µM (inactive) and the GI50 (SNB-75) was > 100 µM (inactive). For the same molecule, the GI50 (SR) was > 100 µM (inactive), the GI50 (SW-620) was > 100 µM (inactive) and the GI50 (T47D) was > 100 µM (inactive). For the same molecule, the GI50 (TK-10) was > 100 µM (inactive), the GI50 (U-251) was > 100 µM (inactive) and the GI50 (UACC-257) was > 100 µM (inactive). For the same molecule, the GI50 (UACC-62) was > 100 µM (inactive) and the GI50 (UO-31) was > 100 µM (inactive).

With `COc1ccc(-c2c(C#N)c(NC(=S)NC(=O)c3ccccc3)nc3c2CCCC3)cc1OC` the GI50 (A549) was 52.4 µM (inactive), the GI50 (ACHN) was 72.3 µM (inactive) and the GI50 (BT-549) was > 100 µM (inactive). For the same molecule, the GI50 (CAKI-1) was 49.5 µM (inactive), the GI50 (CCRF-CEM) was 50.7 µM (inactive) and the GI50 (COLO 205) was > 100 µM (inactive). For the same molecule, the GI50 (DU-145) was > 100 µM (inactive), the GI50 (EKVX) was 24.5 µM (inactive) and the GI50 (HCT-116) was > 100 µM (inactive). The GI50 (HCT-15) was > 100 µM, the GI50 (HL-60) was 34.1 µM (inactive) and the GI50 (HOP-62) was 44.9 µM (inactive). For the same molecule, the GI50 (HT-29) was 58.6 µM (inactive), the GI50 (Hs-578T) was 33.3 µM (inactive) and the GI50 (IGROV-1) was 62.1 µM (inactive). For the same molecule, the GI50 (K562) was 29.6 µM (inactive), the GI50 (KM12) was > 100 µM (inactive) and the GI50 (LOX IMVI) was 49.7 µM (inactive). For the same molecule, the GI50 (M14) was 75.7 µM (inactive), the GI50 (MCF7) was 46.3 µM (inactive) and the GI50 (MDA-MB-231) was 34.7 µM (inactive). The GI50 (MDA-MB-435) was 66.1 µM (inactive), the GI50 (MDA-N) was 65.3 µM (inactive) and the GI50 (MOLT-4) was 27 µM (inactive). For the same molecule, the GI50 (Malme-3M) was 29.8 µM (inactive), the GI50 (NCI-H23) was 67.9 µM (inactive) and the GI50 (NCI-H460) was 35 µM (inactive). For the same molecule, the GI50 (NCI/ADR-RES) was 56.4 µM (inactive), the GI50 (OVCAR-3) was 99.5 µM (inactive) and the GI50 (OVCAR-4) was 45.4 µM (inactive). The GI50 (OVCAR-5) was 98.2 µM (inactive), the GI50 (OVCAR-8) was 48.5 µM (inactive) and the GI50 (PC-3) was 46.2 µM (inactive). For the same molecule, the GI50 (RPMI-8226) was 42 µM (inactive), the GI50 (RXF 393) was 18.3 µM (inactive) and the GI50 (SF-268) was 41.8 µM (inactive). For the same molecule, the GI50 (SF-295) was 56.6 µM (inactive), the GI50 (SF-539) was 30.2 µM (inactive) and the GI50 (SK-MEL-28) was 61.4 µM (inactive). For the same molecule, the GI50 (SK-MEL-5) was 34.6 µM (inactive), the GI50 (SK-OV-3) was > 100 µM (inactive) and the GI50 (SN12C) was 49 µM (inactive). For the same molecule, the GI50 (SNB-19) was 68.2 µM (inactive), the GI50 (SNB-75) was 22.3 µM (inactive) and the GI50 (SR) was 59.2 µM (inactive). For the same molecule, the GI50 (SW-620) was 75.9 µM (inactive), the GI50 (T47D) was 14.9 µM (inactive) and the GI50 (TK-10) was 45.4 µM (inactive). The GI50 (U-251) was 71.1 µM (inactive), the GI50 (UACC-257) was 46.6 µM (inactive) and the GI50 (UACC-62) was 44.5 µM (inactive). For the same molecule, the GI50 (UO-31) was 35.2 µM (inactive).

With `COc1cc(/C=C2\N=C(c3ccccc3)N(c3nc4cc(C)c(C)cc4s3)C2=O)cc(OC)c1OC` the GI50 (786-0) was 27.6 µM (inactive), the GI50 (A549) was 30.1 µM (inactive) and the GI50 (ACHN) was 27 µM (inactive). For the same molecule, the GI50 (BT-549) was 26.8 µM (inactive), the GI50 (CAKI-1) was 35.1 µM (inactive) and the GI50 (CCRF-CEM) was 7.41 µM (inactive). For the same molecule, the GI50 (COLO 205) was 27.5 µM (inactive), the GI50 (DU-145) was 45.4 µM (inactive) and the GI50 (EKVX) was 17.5 µM (inactive). The GI50 (HCC 2998) was 20.9 µM (inactive), the GI50 (HCT-116) was 20.2 µM (inactive) and the GI50 (HCT-15) was 30.3 µM. The GI50 (HL-60) was 17.8 µM (inactive), the GI50 (HOP-62) was 19.9 µM (inactive) and the GI50 (HOP-92) was 13 µM (inactive). For the same molecule, the GI50 (HT-29) was 19 µM (inactive), the GI50 (Hs-578T) was 16.6 µM (inactive) and the GI50 (IGROV-1) was 15.9 µM (inactive). For the same molecule, the GI50 (K562) was 35.4 µM (inactive), the GI50 (KM12) was 21.8 µM (inactive) and the GI50 (LOX IMVI) was 22.4 µM (inactive). The GI50 (M14) was 33.3 µM (inactive), the GI50 (MCF7) was 18.5 µM (inactive) and the GI50 (MDA-MB-231) was 43.6 µM (inactive). For the same molecule, the GI50 (MDA-MB-435) was 12.9 µM (inactive), the GI50 (MDA-N) was 16.1 µM (inactive) and the GI50 (MOLT-4) was 3.31 µM (inactive). For the same molecule, the GI50 (NCI-H460) was 29.2 µM (inactive), the GI50 (NCI/ADR-RES) was 28.1 µM (inactive) and the GI50 (OVCAR-3) was 20 µM (inactive). The GI50 (OVCAR-4) was 21.3 µM (inactive), the GI50 (OVCAR-5) was 27.2 µM (inactive) and the GI50 (OVCAR-8) was 19.8 µM (inactive). For the same molecule, the GI50 (PC-3) was 23.9 µM (inactive), the GI50 (RPMI-8226) was 19.3 µM (inactive) and the GI50 (RXF 393) was 19.3 µM (inactive). For the same molecule, the GI50 (SF-268) was 23 µM (inactive), the GI50 (SF-295) was 27.9 µM (inactive) and the GI50 (SF-539) was 21.7 µM (inactive). For the same molecule, the GI50 (SK-MEL-28) was 62.2 µM (inactive), the GI50 (SK-MEL-2) was 32 µM (inactive) and the GI50 (SK-MEL-5) was 21.2 µM (inactive). The GI50 (SK-OV-3) was 27.7 µM (inactive), the GI50 (SN12C) was 34.8 µM (inactive) and the GI50 (SNB-19) was 36 µM (inactive). The GI50 (SNB-75) was 18.5 µM (inactive), the GI50 (SR) was 18.4 µM (inactive) and the GI50 (SW-620) was 29.4 µM (inactive). For the same molecule, the GI50 (T47D) was 40.9 µM (inactive), the GI50 (TK-10) was 60 µM (inactive) and the GI50 (U-251) was 21.8 µM (inactive). The GI50 (UACC-257) was 28.9 µM (inactive), the GI50 (UACC-62) was 33.3 µM (inactive) and the GI50 (UO-31) was 24.7 µM (inactive).
